In US9493421B2, “Acridinedione derivatives for treating pigmentation disorders and ageing of the skin” (PIERRE FABRE DERMO-COSMETIQUE, priority 2011, dated 2016):
“And” between values parts separate entries of the source, which are not always exact repeats. Equal values may be shown once.

Assays:
B16-F10 cells = assay: Assay of melanin in B16-F10 cells (colorimetric, α-MSH stimulated); assay type: cell-based, murine; settings: Mus musculus, B16-F10, 72 h, 0.1 μM α-MSH, negative = inhibition, positive = stimulation, read-out: Melanin synthesis on B16
Procedure: It is a test to measure the synthesis of melanin by colorimetric assay on a murine melanoma cell line: line B16-F10. With this test it is possible to evaluate the depigmenting or propigmenting property of active ingredients.
The B16-F10 cells were seeded in 96-well plates in DMEM medium supplemented with FCS (foetal calf serum), and incubated 24 h at 37° C., 5% CO2. The cells were stimulated with 0.1 μM α-MSH (to stimulate melanin synthesis, the observed stimulation being about 150%) and treated 72 h with the active ingredients to be assayed. Each concentration of active ingredient was assayed at least in triplicate. Total melanin and intracellular melanin dissolved in lysis buffer were assayed by absorbance read-off at 405 nm. The total proteins were assayed in the lysate and the results expressed in mg melanin/mg proteins. Percentage activity was calculated as follows: […]
A negative value indicates inhibition of the melanin synthesis and translates depigmenting activity of the compound, whereas a positive value indicates induced melanin synthesis and translates a propigmenting property of the molecule.
• B16-F10 cell lines between P10 and P20 (murine melanocytes) (ATCC, CRL-6475); • reagents: DMEM without Phenol Red (GIBCOBRL, 118800-028), 200 mM glutamax-I supplement (GIBCOBRL, 35050-038), glucose (SIGMA, G7021), PBS (GIBCOBRL, 14190-094), foetal calf serum (Invitrogen, 10270-098), trypsin-EDTA (GIBCOBRL, 25300-054), NaOH (Sigma, S8045-500G), DMSO (Sigma, 471267-11), Nle, Phe-Melanocyte Stimulating Hormone (Sigma, M-8764), melanin (Sigma, M-0418), BCA-COPPER (SIGMA, B9643 and C2284), BSA (SIGMA, P0914) B) Test to Study Anti-Oxidizing Capability Using Chemiluminescence (Photochem Analytic Jena) Principle

[1] = Test to study anti-oxidizing capability using chemiluminescence (Photochem Analytic Jena); assay type: biochemical; settings: quantity of sample needed for activity equivalent to 1 μg Trolox, superoxide anion trapping
Procedure: This test is used to determine the anti-oxidizing capability of the molecules. It is a method which generates free radicals via photochemical signal. The intensity of oxidation is 1000 times higher than obtained under normal conditions.
Detection is performed using chemiluminescence. This allows evaluation of water-soluble and liposoluble antioxidant molecules or extracts
The results are expressed in equivalent quantity of vitamin C or Trolox (6-hydroxy-2,5,7,8-tetramethylchroman-2-carboxylic acid) respectively. Sensitivity is in the order of one nanomole.
The anti-oxidizing activity studied in this test represents the capability of specifically trapping superoxide anions by chemiluminescence.
The quantified results are expressed in Trolox equivalent (standard) or in “μg of product per 1 μg of Trolox”. This means that a quantity x of sample is needed to obtain activity equivalent to the activity detected with 1 μg of standard. It is the antioxidizing power in relation to a reference; this avoids having to take into account the concentrations tested.
The superoxide radical: O2^∘^− is generated by photochemical reaction: L+hv(UV)+O2→L*O2→L^∘^++O2^∘^− • L*: luminol in the excited state L^∘+: luminol radical Signal Detection
Part of the superoxide anions are inhibited by the antioxidants. The remaining free radicals are quantified by chemiluminescence. L^∘^++O2^∘^−→N2+AP*^2−→AP^2−+hv (luminescence)
AP*^2−: aminophthalate in the excited state

[2] = Log P (octanol/water partition coefficient); assay type: physicochemical
Excerpt: Log P, also called Log Kow, is a measurement of the differential solubility of chemical compounds in two solvents (octanol/water partition coefficient).
Log P is equal to the logarithm of the ratio of the concentrations of the examined substance in octanol and in water. Log P=Log(Coct/Cwater). With this value it is possible to assess the hydrophilic or hydrophobic (lipophilic) nature of a molecule. If Log P is positive and very high, this means that the molecule under consideration is much more soluble in octanol than in water, which reflects its lipophilic nature, and conversely. A value of Log P=0 means that the molecule is distributed equally between the two phases and Coct=Cwater (C. Hansch, J. F. Quinlan, G. L. Lawrence, Linear free energy relationship between partition coefficients and the aqueous solubility of organic liquids, J. Org. Chem., 33 (1968), 347-350; C. Hansch, A. Leo, Exploring QSAR—Fundamentals and Applications in Chemistry and Biology, American Chemical Society, Washington, 1995; J. Sangster, Octanol—Water Partition Coefficients: Fundamentals and Physical Chemistry, Wiley, Chichester, 1997; W. Jorgensen, E. Duffy, Advanced Drug Delivery Reviews, (54), 2002, 355-366).

[3] = design: key: very good: 0.1 to 3.0; good: 3.01 to 50; average: 50.1 to 1000; poor: >1000; none: NEGATIVE; settings: reference products of the interpretation scale; cited from earlier work

| Compound | μg sample per 1 μg of Trolox [1] | logP [2] | Activity (scale for interpretation of results) [3] | other results |
| --- | --- | --- | --- | --- |
| CCCCCCCCCCCCN1C2=C(C(=O)CC(C)(C)C2)C(c2cc(C(C)(C)C)c(O)c(C(C)(C)C)c2)C2=C1CC(C)(C)CC2=O [Example 8, 10-dodecyl-9-(3,5-di-tert-butyl-4-hydroxyphenyl)-3,3,6,6-tetramethyl-3,4,6,7,9,10-hexahydroacridine-1,8(2H,5H)-dione] | 62 μg sample per 1 μg of Trolox and 61.9 μg sample per 1 μg of Trolox | > 5 | – | activation at 20 µM (B16-F10 cells): -46% |
| O=C(O)CCCC[C@@H]1CCSS1 (racemic) [Lipoic acid] | – | – | none | – |
| Cc1cc(C(C)(C)C)c(O)c(C(C)(C)C)c1 [BHT] | – | – | good (3.01 to 50) | – |
| CCCCCCCCCCCCN1C2=C(C(=O)CC(C(C)C)C2)C(c2ccc(O)c(OC)c2)C2=C1CC(C(C)C)CC2=O (centres unmarked) [Example 9, 10-dodecyl-9-(4-hydroxy-3-methoxyphenyl)-3,6-diisopropyl-3,4,6,7,9,10-hexahydroacridine-1,8(2H,5H)-dione] | 1.57 μg sample per 1 μg of Trolox | > 5 | – | activation at 10 µM (B16-F10 cells): -49% |
| CCCCCCCCCCCCN1C2=C(C(=O)CC(C)(C)C2)C(c2ccc(O)c(OC)c2)C2=C1CC(C)(C)CC2=O [Example 1, 10-dodecyl-9-(4-hydroxy-3-methoxyphenyl)-3,3,6,6-tetramethyl-3,4,6,7,9,10-hexahydroacridine-1,8(2H,5H)-dione] | 2.45 μg sample per 1 μg of Trolox | 6.3 | – | activation at 2 µM (B16-F10 cells; at 2 μM): -40% |
| N[C@@H](CS)C(=O)O [Cystein] | – | – | average (50.1 to 1000) | – |
| O=C1O[C@H]([C@@H](O)CO)C(O)=C1O [Vitamin C] | – | – | very good (0.1 to 3.0) | – |
| CCCCCCCCCCN1C2=C(C(=O)CC(C)(C)C2)C(c2ccc(O)c(O)c2)C2=C1CC(C)(C)CC2=O [Example 3, 10-decyl-9-(3,4-dihydroxyphenyl)-3,3,6,6-tetramethyl-3,4,6,7,9,10-hexahydroacridine-1,8(2H,5H)-dione] | 0.015 μg sample per 1 μg of Trolox | 5.21 | – | activation at 20 µM (B16-F10 cells): -46% |
| Albumin | – | – | poor (>1000) | – |
| CCCCCCCCCCN1C2=C(C(=O)CC(C)(C)C2)C(c2cc(OC)c(O)c(OC)c2)C2=C1CC(C)(C)CC2=O [Example 7, 10-decyl-9-(4-hydroxy-3,5-dimethoxyphenyl)-3,3,6,6-tetramethyl-3,4,6,7,9,10-hexahydroacridine-1,8(2H,5H)-dione] | 0.81 μg sample per 1 μg of Trolox | 5.34 | – | activation at 10 µM (B16-F10 cells): -56% |
